Measurements: article PMC3789677, “Select Dietary Phytochemicals Function as Inhibitors of COX-1 but Not COX-2” (PLoS ONE, 2013)

Tests used:
COX-1 = biological target: T1, COX-1 (Ovis aries, UniProt P05979); assay: In vitro COX enzyme assay (COX Inhibitor Screening Kit, Cayman); assay type: biochemical; settings: means ± S.E.M. of 3 independent experiments
T1 construct: purchased Cayman Chemical Company (Ann Arbor, MI)
T1 sequence (P05979 25-600): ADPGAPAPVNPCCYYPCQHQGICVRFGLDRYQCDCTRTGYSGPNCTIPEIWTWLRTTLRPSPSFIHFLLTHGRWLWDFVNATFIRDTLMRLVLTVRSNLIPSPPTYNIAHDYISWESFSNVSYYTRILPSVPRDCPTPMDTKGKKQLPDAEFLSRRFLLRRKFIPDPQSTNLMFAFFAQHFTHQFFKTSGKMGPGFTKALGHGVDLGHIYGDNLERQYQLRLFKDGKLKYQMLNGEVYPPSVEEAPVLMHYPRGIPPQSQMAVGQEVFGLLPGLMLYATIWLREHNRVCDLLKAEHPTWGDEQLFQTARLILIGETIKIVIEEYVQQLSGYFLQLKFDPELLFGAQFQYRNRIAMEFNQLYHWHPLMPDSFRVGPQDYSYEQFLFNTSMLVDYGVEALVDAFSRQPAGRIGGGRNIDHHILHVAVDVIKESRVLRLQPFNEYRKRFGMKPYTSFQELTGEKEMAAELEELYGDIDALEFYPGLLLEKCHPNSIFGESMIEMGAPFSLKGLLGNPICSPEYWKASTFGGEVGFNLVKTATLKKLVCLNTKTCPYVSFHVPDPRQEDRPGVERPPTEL
Method: (§1) COX activity was evaluated using a COX Inhibitor Screening Kit from Cayman Chemical Company (Ann Arbor, MI) according to the manufacturer’s instructions.

COX-2 = biological target: T2, COX-2 (Homo sapiens, UniProt P35354); assay: as above; assay type: biochemical; settings: means ± S.E.M. of 3 independent experiments
T2 construct: purchased Cayman Chemical Company (Ann Arbor, MI)
T2 sequence (P35354 18-604): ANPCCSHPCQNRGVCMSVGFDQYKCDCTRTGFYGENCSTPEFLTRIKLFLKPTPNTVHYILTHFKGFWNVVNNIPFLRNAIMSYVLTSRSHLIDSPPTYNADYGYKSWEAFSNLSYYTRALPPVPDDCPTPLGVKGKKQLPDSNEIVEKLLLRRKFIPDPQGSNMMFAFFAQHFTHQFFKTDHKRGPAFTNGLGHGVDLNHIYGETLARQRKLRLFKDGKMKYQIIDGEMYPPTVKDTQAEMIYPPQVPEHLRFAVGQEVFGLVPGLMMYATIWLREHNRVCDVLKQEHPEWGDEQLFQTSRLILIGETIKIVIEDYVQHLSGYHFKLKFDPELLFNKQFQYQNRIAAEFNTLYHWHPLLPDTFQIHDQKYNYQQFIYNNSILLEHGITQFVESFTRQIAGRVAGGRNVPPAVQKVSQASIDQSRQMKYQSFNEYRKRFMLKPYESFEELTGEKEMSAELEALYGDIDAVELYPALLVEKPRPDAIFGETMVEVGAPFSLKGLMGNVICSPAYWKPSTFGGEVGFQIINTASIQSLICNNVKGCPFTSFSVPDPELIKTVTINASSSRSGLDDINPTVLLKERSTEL
Method: as §1

[1] = test system: human umbilical vein endothelial cells (HUVECs); assay: TXB2 and 6-keto PGF1α assay in HUVECs (ratio as cardiovascular toxicity biomarker); assay type: cell-based; settings: 3 µM
Method: Cells (6×10^5) were seeded in a six-well plate in the presence of 10% FBS. At 70-80% confluence, cells were pretreated with vehicle or individual compounds in 1 mL fresh medium for 2 h. […] Supernatant fractions were collected for prostaglandin measurement using enzyme immunoassay kits (Cayman Chemical Company).
Figure 2 Effects of dietary phytochemicals on (A) TXB2 and (B) 6-keto-PGF1α under physiological conditions. HUVECs were seeded in a six-well-plate (6×10^5 cells per well). At 70-80% confluence, 1 mL fresh medium containing DMSO or 3 µM of each individual compound was added and cells were further incubated for 8 h. Supernatant fractions were collected for prostaglandin measurement. (C) The ratio of TXB2/6-keto-PGF1α. Data are presented as means ± S.E.M (n = 4) and the asterisk(s) indicate a significant (*, p < 0.05; ***, p < 0.001) difference versus the vehicle control group.

Row | IC50 (COX-1) [µM] | IC50 (COX-2) [µM] | Compound | ratio of TXB2/6-keto-PGF1α ([1]; physiological conditions, 8 h (Figure 2)) | ratio of TXB2/6-keto-PGF1α ([1]; pro-inflammatory conditions, 2 h pretreatment then IL-1β 17.5 ng/mL for 8 h (Figure 3))
1 | 94.1 ± 12.3 |  | O=c1cc(-c2ccc(O)cc2)oc2cc(O)cc(O)c12 [Apigenin] |  | 
2 | > 400 | > 400 | O=c1c(O)c(-c2ccc(O)c(O)c2)oc2cc(O)cc(O)c12 [Quercetin] |  | 
3 | 17.9 ± 4.2 | 28.6 ± 3.8 | O=C(O[C@@H]1Cc2c(O)cc(O)cc2O[C@@H]1c1cc(O)c(O)c(O)c1)c1cc(O)c(O)c(O)c1 [EGCG] | most potent inhibitory effect | most potent inhibitory effect
4 | 111 ± 7.5 | 236 ± 19.7 | O=c1c(O)c(-c2ccc(O)cc2)oc2cc(O)cc(O)c12 [Kaempferol] |  | 
5 | > 400 | > 400 | O=C1C[C@@H](c2ccc(O)cc2)Oc2cc(O)cc(O)c21 [Naringenin] |  | 

Row | Compound | IC50 (COX-1) [µM] | IC50 (COX-2) [µM] | ratio of TXB2/6-keto-PGF1α ([1]; physiological conditions, 8 h (Figure 2)) | ratio of TXB2/6-keto-PGF1α ([1]; pro-inflammatory conditions, 2 h pretreatment then IL-1β 17.5 ng/mL for 8 h (Figure 3))
6 | Oc1ccc(/C=C/c2cc(O)cc(O)c2)cc1 [Resveratrol] | 3.4 ± 1.1 |  |  | 
7 | COc1cc(/C=C/C(=O)CC(=O)/C=C/c2ccc(O)c(OC)c2)ccc1O [Curcumin] | 330 ± 34.3 |  |  | 
8 | O=c1c(-c2ccc(O)cc2)coc2cc(O)cc(O)c12 [Genistein] | 9.9 ± 2.3 | 256 ± 35.7 |  | 
